Like-named read-outs stand apart in the source and are kept apart here.
What was measured:
HCT116 cells [1] = test: DNA microarray gene expression profiles; assay type: cell-based, human; settings: SAHA (200 μM), Largazole (20 nM), Example 1 (20 nM)
Description: FIG. 9A illustrates hierarchical clustering and heatmaps of changes in gene expression profiles in the HCT116 cells with indicated treatment. FIGS. 9B and 9C illustrate Venn diagrams showing unique and shared gene sets whose expression levels changed by more than 2 fold upon exposure to the indicated treatment at 6 hr (FIG. 9B) and 24 hr (FIG. 9C).
Expression values files for each sample were generated using the Robust Multichip Average (RMA) algorithm. Differential expression was determined using the R software package limma to generate linear models and empirical Bayesian statistics. Genes were considered differentially expressed if the P value, adjusted for multiple testing using the Benjamini and Hochberg method, was ≦5% and the log-2 fold change was […].
HCT116 cells were seeded in triplicate at approximately 60% confluency. […] Cells were incubated for 6 or 24 hours followed by a wash with phosphate-buffered saline. Total RNA was extracted using a RNeasy Mini RNA extraction kit (QIAGEN Inc., Valencia, Calif.) immediately after wash. Total RNA concentration was determined using a Lambda 800 UV/VIS spectrometer (PerkinElmer, Waltham, Mass.) and processed for labeling hybridization, wash, and scan at University of Colorado-Denver Health Sciences Center. Three GeneChip® Human Gene 1.0 ST (Affymetrix, Santa Clara, Calif.) arrays were used for each of the time points, cell types, and treatments for a total of 24 arrays. Expression values files for each sample were generated using the Robust Multichip Average (RMA) algorithm. Differential expression was determined using the R software package limma to generate linear models and empirical Bayesian statistics. Genes were considered differentially expressed if the P value, adjusted for multiple testing using the Benjamini and Hochberg method, was ≦5% and the log-2 fold change was […]. GeneSpring GX (Agilent, Santa Clara, Calif.) software was used for hierarchical clustering and generating heatmaps.

[2] = test system: acetylated histone H3 in HCT116 cells; test: Western blot of histone H3 hyperacetylation; assay type: cell-based, human; settings: 8 hours, concentrations ranging from 1/μM to 100 nM
Description: Cell extracts were separated via SDS-PAGE electrophoresis and the resulting bands were detected utilizing anti-acetyl-H3 antibodies. DMSO-treated cells serve as a negative control, while the expression of GAPDH was used to show equal loading. […] Cells were treated with the indicated compound for 8 hours with concentrations ranging from 1/μM to 100 nM and immunoblotted with anti-acetylhistone H3 antibody.
For western blot analysis, total protein extracts were prepared by lysing cells in lysis buffer (50 mM Tris-Cl [pH 8.0], 5 mM EDTA, 150 mM NaCl, 1% NP-40, 0.1% SDS, and 1 mM phenylmethylsulfonyl fluoride). 50 μg of total soluble proteins were separated by SDS-PAGE. Proteins were transferred to nitrocellulose membrane and the membrane was blocked for 1 hour with 4% nonfat milk, followed by overnight incubation at 4° C. with primary antibodies against acetylated histone H3 (1:1000, Upstate, #06-599), Ezrin (1:10000, Sigma, E-8897), Glyceraldehyde 3-phosphate dehydrogenase (GAPDH; 1:20000, Santa Cruz, sc-47724), histone H3 (H3; 1:1000, Santa Cruz, sc-8654). Membranes were then incubated with peroxidase conjugated secondary antibodies for one hour at room temperature. Detection was performed using Super Signal WestDura. The expression of Ezrin and GAPDH was used as loading control.

MDA-MB231 = test: Cell growth inhibition, crystal violet cell viability assay; assay type: cell-based; settings: Homo sapiens, read-out: Cell Growth Inhibition GI50, MDA-MB231
Description: (§1) Comparative analysis of the cytotoxic effect of largazole in human cancer cell lines HCT116, SW480 and MDA-MB231. HME were used as control. 8,000 cells were plated in 96-well plates where rows 1 and 10 were treated with DMSO, row 2 had no cells to establish background levels, rows 3-9 contained decreasing concentrations of compound. Cells were incubated with largazole for 48 hours, followed by staining with crystal violet dye. The absorbance at 588 nm was measured using a Tecan Sail re II plate reader. Experiments were performed in replicates of six, and concentration-response curves were generated by nonlinear least square regression analysis of the data using GraphPad Prism (San Diego, Calif.). The growth inhibition (GI50) for each compound was defined as a concentration of drug leading to a 50% reduction in A588 compared with controls
(§2) SW480, HCT116, and MDA-MB231 cell lines were purchased from the American Tissue Culture Collection. SW480 and MDA-MB231 cells were grown in Dulbecco's modified Eagle's medium supplemented with 10% fetal calf serum at 37° C. in a humidified 5% CO2 atmosphere. The HCT116 cell line was cultured in McCoy's 5a medium [ATCC; Cat. No. 30-2007] with 1.5 mM L-glutamine and 10% fetal bovine serum [ATCC; Cat. No. 30-2020]. HME cells (Clonetics, San Diego, Calif.; donor 4144) were cultured serum-free in Clonetics' recommended medium and supplements (52 μg/ml bovine pituitary extract, 0.5 μg/ml hydrocortisone, 0.01 μg/ml human epidermal growth factor, 5 μg/ml insulin, 50 μg/ml gentamicin and 50 ng/ml amphotericin-B).
(§3) 8,000 cells from different cancers were plated in flat-bottomed 96-well microplates. (Background control wells lacking the cells but containing the same volume of media were included in each assay plate). 24 hours after seeding, new media was added. To assess the in vitro cytotoxicity, each compound was dissolved in DMSO and prepared immediately before the experiments and was diluted into complete medium before addition to cell cultures. Test compounds were then added to the culture medium for designated decreasing concentrations (600 nM to 10 nM). Cell viability was determined 48 hours later using crystal violet dye (Sigma-Aldrich), which was solubilized in ethanol, and absorbance was measured at 588 nm using a Tecan Sail re II plate reader. Experiments were performed in replicates of six, and concentration-response curves were generated by nonlinear least square regression analysis of the data using GraphPad Prism (San Diego, Calif.). The growth inhibition (GI50) for each compound was defined as a concentration of drug leading to a 50% reduction in A588 compared with controls.
as §3, with “cancer or nontransformed cells” for “cancers”, “Safire” for “Sail re”, “concentration—response” for “concentration-response”

HCT-116 = test: as above; assay type: cell-based; settings: Homo sapiens, read-out: Cell Growth Inhibition GI50, HCT-116
Description: as §1, §2, §3
as §3, with “cancer or nontransformed cells” for “cancers”, “Safire” for “Sail re”, “concentration—response” for “concentration-response”

HME = test: Cell growth inhibition, crystal violet cell viability assay (control cells); assay type: cell-based; settings: read-out: Cell Growth Inhibition GI50, HME
Description: as §1
SW480, HCT116, and MDA-MB231 cell lines were purchased from the American Tissue Culture Collection. SW480 and MDA-MB231 cells were grown in Dulbecco's modified Eagle's medium supplemented with 10% fetal calf serum at 37° C. in a humidified 5% CO2 atmosphere. The HCT116 cell line was cultured in McCoy's 5a medium [ATCC; Cat. No. 30-2007] with 1.5 mM L-glutamine and 10% fetal bovine serum [ATCC; Cat. No. 30-2020]. […]
(§4) 8,000 cells from different cancers were plated in flat-bottomed 96-well microplates. […] Cell viability was determined 48 hours later using crystal violet dye (Sigma-Aldrich), which was solubilized in ethanol, and absorbance was measured at 588 nm using a Tecan Sail re II plate reader. […]
as §4, with “cancer or nontransformed cells” for “cancers”, “Safire” for “Sail re”

HCT 116 cells = settings: Zeng et al. 2010; cited from earlier work
melanoma cell lines = settings: series of melanoma cell lines; Bowers et al. 2008; cited from earlier work
HDAC = settings: read-out: IC50, HDAC inhibition in treated cells; cells treated with compound; Ying et al. 2008a; cited from earlier work
HCT116 cells [3] = settings: Ying et al. 2008b, read-out: GI50, antigrowth activity; cited from earlier work
[4] = MDA-MB-231, MDA-MB231, 48 hours, crystal violet, A588
[5] = HCT-116, 48 hours, crystal violet, A588
[6] = HME control cells, 48 hours, crystal violet, A588

Molecule	# of Genes 2 Fold-Change in comparison to DMSO control (HCT116 cells [1]; 6 hr)	# of Genes 2 Fold-Change in comparison to DMSO control (HCT116 cells [1]; 24 hr)	GI50 (MDA-MB231; [4]) [nM]	GI50 (HCT-116; [5]) [nM]	GI50 (HME; [6]) [nM]	GI50 (HCT 116 cells) [nM]	other results
CCCCCCCC(=O)SCC/C=C/[C@@H]1CC(=O)NCc2nc(cs2)C(=O)NC(C)(C)C(=O)N[C@@H](C(C)C)C(=O)O1 [Example 1, S-(E)-4-((7S,10S)-7-isopropyl-4,4-dimethyl-2,5,8,12-tetraoxo-9-oxa-16-thia-3,6,13,18-tetraazabicyclo[13.2.1]octadeca-1(17),15(18)-dien-10-yl)but-3-enyl octanethioate]	421	174	53	16 ± 2	≥ 600	–	Deacetylase inhibition, dose response of H3 acetylation (FIG. 8B) [2]: slightly more potent deacetylase inhibitors than largazole (L) and SAHA
CCCCCCCC(=O)SCC/C=C/[C@@H]1CC(=O)NCc2nc(co2)C(=O)NC(C)(C)C(=O)N[C@@H](C)C(=O)O1 [Example 4, S-(E)-4-((7S,10S)-4,4,7-trimethyl-2,5,8,12-tetraoxo-9,16-dioxa-3,6,13,18-tetraazabicyclo[13.2.1]octadeca-1(17),15(18)-dien-10-yl)but-3-enyl octanethioate]	–	–	53 ± 3	17	≥ 600	–	–
CCCCCCCC(=O)SCC/C=C/[C@@H]1CC(=O)NCc2nc(cs2)C2=N[C@@](C)(CS2)C(=O)N[C@@H](C(C)C)C(=O)O1 [Largazole]	529	566	–	–	–	–	GI50 (MDA-MB231; MDA-MB-231, 48 h): 71 ± 8 nM; GI50 (HCT-116; HCT-116, 48 h): 28 nM; GI50 (HME; 48 h): ≥ 600 nM
CCCCCCCC(=O)SCCC=CC1CC(=O)NCc2nc(cs2)C2=NC(C)(CS2)C(=O)NC(CC(C)C)C(=O)O1 (stereo not shown) [Leu 1]	–	–	–	–	–	560	–
CCCCCCCC(=O)SCCC=CC1CC(=O)NCc2nc(cs2)C2=NC(C)(CS2)C(=O)NC(Cc2ccccc2)C(=O)O1 (stereo not shown) [Phe 1]	–	–	–	–	–	260	–
largazole thiol	–	–	–	–	–	–	IC50 (melanoma cell lines): 380 to 2600 nM; IC50 (HDAC): 209 nM; GI50 (HCT116 cells [3]): 38 nM
